# In patent US20230165835A1, “METHODS OF TREATING ACUTE LUNG INJURY USING EBSELEN” (SOUND PHARMACEUTICALS INC., priority 2020, published 2023):
# pEC50: −log10 of the molar value.
# What was measured:
# SARS-CoV-2 [1] = experiment: Reduction of SARS-CoV-2 viral load in Vero E6 cells (image based assay of Jin et al.); assay type: cell-based; settings: Severe acute respiratory syndrome coronavirus 2, Vero C1008, read-out: EC50, reduction in viral load in Vero E6 cells, SARS-CoV-2; ebselen 100 nM to 1000 μM in DMSO or EtOH, remdesivir 1 nM to 10 μM
# Vero E6 cells = experiment: Cytotoxicity / cell viability in Vero E6 cells; assay type: cell-based; settings: ebselen: at ranges slightly higher than EC50
# SARS-CoV-2 [2] = experiment: Hamster model of SARS-CoV-2 disease transmission and progression, viral load (PFU); assay type: in vivo, Golden Syrian Hamsters; settings: 15 mg/kg
# Experimental: 24 hours prior to nasal inoculation with SARS-CoV-2, Golden Syrian Hamsters were dosed with ebselen, saline and remdesivir at 15 mg/kg. Samples were taken from nares (PFU/swab) on days 1, 2 and 3, and from the nasal turbinates and cranial & caudal lung tissue (PFU/100 mg) on day 7.
# [3] = human, in vivo, iv
smiles,measurement,setting,value
CCC(CC)COC(=O)[C@H](C)N[P@](=O)(OC[C@H]1O[C@@](C#N)(c2ccc3c(N)ncnn23)[C@H](O)[C@@H]1O)Oc1ccccc1 [remdesivir],pEC50,SARS-CoV-2 [1],5.15
same,effect on cell viability,Vero E6 cells,no effect on cell viability
same,PFU/swab (nares) Day 1,"SARS-CoV-2 [2]; 24 hours prior to nasal inoculation, saline 2.7E+04",1.1E+04 PFU/swab
same,PFU/swab (nares) Day 3,"SARS-CoV-2 [2]; 24 hours prior to nasal inoculation, saline 5.5E+02",3.8E+03 PFU/swab
same,PFU/swab (nares) Day 2,"SARS-CoV-2 [2]; 24 hours prior to nasal inoculation, saline 7.5E+03",3.1E+03 PFU/swab
same,PFU/100 mg Cranial lung,"SARS-CoV-2 [2]; day 7, saline 4.9E+06",4.4E+06 PFU/100 mg
same,PFU/100 mg Turbinates,"SARS-CoV-2 [2]; day 7, saline 5.5E+07",4.0E+02 PFU/100 mg
same,PFU/100 mg Caudal lung,"SARS-CoV-2 [2]; day 7, saline 6.1E+06",1.2E+07 PFU/100 mg
NC[C@H]1O[C@H](O[C@H]2[C@H](O)[C@@H](O[C@H]3O[C@H](CO)[C@@H](O)[C@H](N)[C@H]3O)[C@H](N)C[C@@H]2N)[C@H](N)C[C@@H]1O [tobramycin],"% Responders (Bilateral), Conv + SRO",[3]; 4 weeks,33%
same,"% Responders (Bilateral), Conventional",[3]; 4 weeks,0%
same,"% Responders (Bilateral), DPOAE",[3]; 4 weeks,40%
same,"% Responders (Bilateral), SRO",[3]; 4 weeks,33%
same,"% Responders (Bilateral), WINT",[3]; 4 weeks,7%
same,"% Responders (Unilateral), Conv + SRO",[3]; 4 weeks,60%
same,"% Responders (Unilateral), Conventional",[3]; 4 weeks,27%
same,"% Responders (Unilateral), DPOAE",[3]; 4 weeks,40%
same,"% Responders (Unilateral), SRO",[3]; 4 weeks,53%
same,"% Responders (Unilateral), WINT",[3]; 4 weeks,33%
same,"% Responders, Conv + SRO",[3]; 4 weeks,93%
same,"% Responders, DPOAE",[3]; 4 weeks,80%
same,"% Responders, SRO",[3]; 4 weeks,87%
same,"% Responders, TFI",[3]; 4 weeks,8%
same,"% Responders, TL",[3]; 4 weeks,15%
same,"% Responders, VSS",[3]; 4 weeks,8%
same,"% Responders, WINT",[3]; 4 weeks,40%
same,"% Responders, Conventional",[3]; 4 weeks post-treatment,27%
